# Assay results: patent publication US5171864A, “Di-(5-hydroxy-2(5H)-2-oxo-4-furyl)methyl-alpha,omega alkane-dioates and N,N-bis-(5-hydroxy-2(5H)-2-oxo-4-furyl)methyl-alpha,omega-dialkanoic acid amides as anti-inflammatory agents” (Allergan, Inc., priority 1991, dated 1992)
# Where two headings read alike, the source gives them in different places.
# What was measured:
# [1] = molecular target: bee venom phospholipase A2 (Apis mellifera, UniProt P00630); assay: biochemical; conditions: read-out: PLA2 IC50
# [2] = molecular target: phosphoinositide-specific phospholipase C; assay: Inhibition of phosphoinositide-specific phospholipase C (PLC); type: biochemical; conditions: procedure of Bennett et al, Molecular Pharmacology 32:587-593 (1987)
# Text: Inhibition of Phosphoinositide-specific Phospholipase C
# The effect of compounds of this invention on phosphoinositide-specific phospholipase C may be determined by procedures described by Bennett et al, Molecular Pharmacology 32:587-593 (1987).
# Chain of bee venom phospholipase A2 (P00630 34-167 limits assumed): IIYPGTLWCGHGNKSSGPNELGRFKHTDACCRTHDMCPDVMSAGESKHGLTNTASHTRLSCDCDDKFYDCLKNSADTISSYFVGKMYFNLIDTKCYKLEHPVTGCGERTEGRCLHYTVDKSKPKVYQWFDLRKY
Structure (SMILES),IC50 [1],IC50 [2],IC50 ([1]; pH 7.4)
"O=C1C=C(COC(=O)CCCCCCCCCCC(=O)OCC2=CC(=O)OC2O)C(O)O1 (stereo not shown) [Compound 1, Di-[5-hydroxy-2(5H)-2-oxo-4-furyl]methyl dodecan-1,12-dioate]",0.07 µM,> 100 µM,
"CC(C)(C)C(=O)OC1OC(=O)C=C1COC(=O)CCCCCCCCCCC(=O)OCC1=CC(=O)OC1OC(=O)C(C)(C)C (stereo not shown) [Compound 2, Di-[5tert-butanoyloxy-2(5H)-furano-4yl]methyl dodecan-1,12-dioate]",,> 100 µM,> 1 µM
"O=C(CCCCCCCCCCC(=O)NCC1=CC(=O)OC1O)NCC1=CC(=O)OC1O (stereo not shown) [Compound 3, N,N'-Bis(5-hydroxy-2(5H)-2-oxo-4-furyl)methyl-1,12-dodecanoic acid amide]",0.03 µM,> 100 µM,
"O=C(CCCCCCCCCCC(=O)NCC1=CC(=O)OC1OC(=O)Nc1ccccc1)NCC1=CC(=O)OC1O (stereo not shown) [Compound 4, N-(5-Hydroxy-2(5H)2-oxo-4-furyl)methyl-N'-(5-phenylcarbamoyloxy-2(5H) 2-oxo-4-furyl)methyl-1,12-dodecanamide]",,> 100 µM,> 1 µM
"O=C(CCCCCCCCCCC(=O)NCC1=CC(=O)OC1OC(=O)Nc1ccccc1)NCC1=CC(=O)OC1OC(=O)Nc1ccccc1 (stereo not shown) [Compound 5, N,N'-bis(5-phenylcarbamoyloxy-2(5H)2-oxo-4-furyl)methyl-1.12-dodeca]",,> 100 µM,> 1 µM
